Reference: patent US20110085978A1, “NOVEL QUINOLINYLAMIDE DERIVATIVES USEFUL AS MODULATORS OF DOPAMINE AND SEROTONIN RECEPTORS” (NeuroSearch A/S, priority 2008, published 2011)

Test system: MK801 induced hyperactivity in female NMRI mice
Assay: MK801 induced hyperactivity
Format: in vivo
Settings: test compound subcutaneously 30 minutes before test start at 3, 10, 30 mg/kg, MK801 0.2 mg/kg ip
Experimental: Female NMRI mice (Taconic M&B, P.O. box 1079, DK-8680 Ry, Denmark) are kept in a ventilated closed rack (Scantainer, Scanbur Ltd., Denmark) at constant temperature (21° C.) and humidity (60-70%) with a 7:00 a.m light/7:00 p.m dark cycle. Food (altromin rat pellets) and water were available ad libitum.
Experiments were conducted during daytime in the light phase. The animals were habituated to the experimental room approximately 24 hours before start of the experiments.
MK801 induced hyperactivity was measured in automated activity frames (TSE Home Cage Activity Monitoring System, MoTil, TSE technical & scientific equipment GmbH, Germany) equipped with infrared photobeam emitters and sensors. MK801 was administered in a dose of 0.2 mg/kg ip immediately before test start.
Test compound was pretreated subcutaneously 30 minutes before test start at the following doses 3, 10, 30 mg/kg in a dose volume of 10 ml/kg.

Row | SMILES | Minimal Effective Dose (M.E.D) that significantly reduces MK801 induced hyperactivity
1 | COc1ccccc1N1CCN(CCCCC(=O)Nc2ccc3ncccc3c2)CC1 [Compound A3, 5-[4-(2-Methoxy-phenyl)-piperazin-1-yl]-pentanoic acid quinolin-6-ylamide] | 10 mg/kg
2 | O=C(CCCCN1CCC(c2ccccc2)CC1)Nc1ccc2ncccc2c1 [Compound A4, 5-(4-Phenyl-piperidin-1-yl)-pentanoic acid quinolin-6-ylamide] | 10 mg/kg
